Source: PubChem BioAssay (NCI)
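48-hour exposure; five concentrations; linearly interpolated endpoints. Here, GI50 denotes the concentration required for 50% inhibition of growth. TGI is the concentration that stops growth completely.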

What was measured:
Test in all cases: inhibition of tumour cell growth, NCI panel, 48 h
CAKI-1 renal = tested on: CAKI-1 renal
HCC-2998 colon = tested on: HCC-2998 colon
HCT-15 colon = tested on: HCT-15 colon
MDA-MB-435 = tested on: MDA-MB-435
MOLT-4 leukemia = tested on: MOLT-4 leukemia
SF-268 CNS = tested on: SF-268 CNS
SK-OV-3 ovarian = tested on: SK-OV-3 ovarian
SR leukemia = tested on: SR leukemia
TK-10 renal = tested on: TK-10 renal
U251 CNS = tested on: U251 CNS

SMILES	GI50 (CAKI-1 renal) [µM]	TGI (CAKI-1 renal) [µM]	GI50 (HCC-2998 colon) [µM]	TGI (HCC-2998 colon) [µM]	GI50 (HCT-15 colon) [µM]	TGI (HCT-15 colon) [µM]	GI50 (MDA-MB-435) [µM]	TGI (MDA-MB-435) [µM]	GI50 (MOLT-4 leukemia) [µM]	TGI (MOLT-4 leukemia) [µM]	GI50 (SF-268 CNS) [µM]	TGI (SF-268 CNS) [µM]	GI50 (SK-OV-3 ovarian) [µM]	TGI (SK-OV-3 ovarian) [µM]	GI50 (SR leukemia) [µM]	TGI (SR leukemia) [µM]	GI50 (TK-10 renal) [µM]	TGI (TK-10 renal) [µM]	GI50 (U251 CNS) [µM]	TGI (U251 CNS) [µM]
COc1ccc(-c2nnc(SCC(=O)Nc3ccc(/C(C)=N\O)cc3)n2-c2ccccc2)cc1OC	> 100	> 100	> 100	> 100	> 100	> 100	> 100	> 100	> 100	> 100	3.07	20.3	2.73	13.7	> 100	> 100	11.3	52.7	3.61	19.6
O=Cc1cn(Cc2cccc(Cl)c2)c2ccccc12	0.214	1.89	12.5	26.2	11.6	25.2	12.2	28.5	6.69	31.8	11.7	26.3	1.8	16	23.9	55.7	0.136	1.27	9.61	21.8
Cn1ccnc1C(=O)/C=C/c1ccc(CC(=O)Nc2ccc(S(F)(F)(F)(F)F)cc2)cc1	2.66	5.72	2.92	5.3	0.878	11.7	4.04	12.5	0.578	1.51	1.88	4.86	3.86	11.6	0.53	1.86	4.05	9.5	0.898	3.07
Cn1c(=O)c(Oc2ccc(F)cc2F)cc2cnc(NC(CO)CO)nc21	> 25	> 25	> 25	> 25	> 25	> 25	> 25	> 25	> 25	> 25	> 25	> 25	> 25	> 25	> 25	> 25	> 25	> 25	> 25	> 25
